What is called kcat is the maximal rate divided by the concentration of active sites. What is called Kd is the constant that tells how readily two partners part at equilibrium. High values mean weaker binding, low ones tighter binding.

The values that follow come from paper PMC9425443 (RSC Advances, 2022).

Structures can show the parent of a compound that is named as a salt.

The target of data set [1] is T1, CYP142A1 C110S (Mycobacterium tuberculosis, UniProt P9WPL5, C110S). In kind it is biochemical.
The target of data set [2] is T2, CYP142A1 C281S (Mycobacterium tuberculosis, UniProt P9WPL5, C281S). In kind it is biochemical.
Data set [3] addresses T3, CYP142A1 C316S (Mycobacterium tuberculosis, UniProt P9WPL5, C316S). In kind it is biochemical.
The target of data set [4] is T4, CYP142A1 C118S (Mycobacterium tuberculosis, UniProt P9WPL5, C118S). In kind it is biochemical.
Data set [5] concerns the target T5, CYP142A1 C123S (Mycobacterium tuberculosis, UniProt P9WPL5, C123S). In kind it is biochemical.
The target in data set [6] is T6, CYP142A1 C296S (Mycobacterium tuberculosis, UniProt P9WPL5, C296S). In kind it is biochemical.
The target in data set [7] is T1, CYP142A1 C110S. Particulars: pH 7.4.
Data set [8] deals with T6, CYP142A1 C296S. The following applies: pH 7.4.
The target in data set [9] is T3, CYP142A1 C316S. The following applies: pH 7.4.
The target in data set [10] is T2, CYP142A1 C281S. The following applies: pH 7.4.
Data set [11] deals with T5, CYP142A1 C123S. Particulars: pH 7.4.
Data set [12] concerns the target T4, CYP142A1 C118S. Particulars: pH 7.4.

In the case of `CC(C)CCC[C@@H](C)[C@H]1CC[C@H]2[C@@H]3CCC4=CC(=O)CC[C@]4(C)[C@H]3CC[C@]12C` [Cholest-4-en-3-one], the kcat in data set [1] was 0.11 ± 0.0113 s⁻¹; in [2], 0.0917 ± 0.00617 s⁻¹; in data set [3], 0.0783 ± 0.00617 s⁻¹; in data set [4], 0.0933 ± 0.00633 s⁻¹; in [5] it was 0.085 ± 0.00617 s⁻¹; in [6], 0.0767 ± 0.00583 s⁻¹.

Regarding `CC(C)CCC[C@@H](C)[C@H]1CC[C@H]2[C@@H]3CC=C4C[C@@H](OS(=O)(=O)O)CC[C@]4(C)[C@H]3CC[C@]12C` [Cholesteryl sulfate], the Kd came to 37 ± 8.7 µM in data set [7]; 25 ± 9.6 µM in [8]; 26 ± 8 µM in data set [9]; 37 ± 8.8 µM in data set [10]; 35 ± 9.3 µM in data set [11]; 33 ± 4.3 µM in data set [12].

Turning to Cholesteryl propionate, the Kd is 35 ± 4.9 µM in data set [7]; 48 ± 5.9 µM in data set [8]; 46 ± 6.8 µM in data set [9]; 47 ± 7.6 µM in data set [10]; 23 ± 5 µM in data set [11]; 43 ± 10 µM in data set [12].
